Reference: patent US8518953B2, “Aminopyrimidines useful as inhibitors of protein kinases” (Vertex Pharmaceuticals Incorporated, priority 2007, dated 2013)

Columns and labels:
GSK3α TYR 279 = biological target: T1, GSK3α TYR 279 (Homo sapiens, UniProt P49840); assay: GSK-3α p-TYR Inhibition Assay (western blotting of Jurkat cells); assay type: cell-based; conditions: western blot, read-out: GSK3a pTYR 279: IC50
T1 construct: western blotting of Jurkat cells dosed with the compounds; endogenous in cells; host or cells: Jurkat cells
Protocol: Compounds are screened for their ability to inhibit the phosphorylation of tyrosine (TYR) residues through the use of western blotting of Jurkat cells dosed with the compounds. The phosphorylation of the specific TYR residues tested are GSK3α TYR 279 and GSK3β TYR 216.
Jurkat cells are seeded at a density of 2×10^5 cells/well in a 12 well dish in starvation media (RPMI+1% FBS+P/S). Following starvation for 16 hours, the compound is dosed into each well at a final DMSO concentration of 0.3% and cells are incubated o/n at 37° C. 5% CO2. The next day, cells are spun down at 1500 rpm, washed with PBS, and lysed in 100 uL Laemli sample buffer with β-mercaptoethanol.
15 microliters (uL) of cell lysates are loaded onto a 10% tris-glycine gel and run at 120 v for 2 hours or until dye front runs off of the gel. The protein is then transferred onto a PVDF membrane at 100 v for 60 min. PBST (PBS containing 0.1% Tween 20, such as 1 ml Tween per 1 L of PBS) is then made up and used for all washes and antibody incubations. The blot is blocked in 5% nonfat milk PBST for one hour.
The primary antibody (GSK-3α/β pTYR 279/216 at 1:1000 dilution Upstate cat#05-413) is then added in […] PBST overnight at 4° C. with gentle rocking. The blot is then washed in PBST for 5 min. This is then repeated 4 times. […]

rats subjected to MCAO = assay: Post Stroke Recovery MCAO Model: Gridwalk; assay type: in vivo, rat; conditions: 7 and 14 days after stroke
Source text: Adult male Wistar rats are pre-trained on a battery of behavioral tests including: tray reach, […], forelimb asymmetry (cylinder bracing), forelimb inhibition (swim test) (see below for detailed description of tests). Following pre-stroke behavioral assessment the rats receive surgery during which a stroke is induced. The rats are pseudo-randomly divided into 5 equal groups (n=12) ensuring an equal number of right and left strokes within each treatment group. The first group receives sham surgery with vehicle as treatment. Administration of the test compound and vehicle (dose, route, timing) is determined by the sponsor. The core body temperature is maintained at 37° C. (+/-1°). Following surgery all animals are behaviorally assessed 1, 7, and 14 d post-stroke. At the conclusion of behavioral assessment all rats undergo an MRI to determine infarct volume. […] Rectal temperature is monitored and maintained at 37 C+/-1° C. for the duration of the surgery and until the rat is awake and mobile (approximately 3 hr). […] Forelimb and hindlimb coordination are measured using an apparatus that consists of two Plexiglas panels 1 m long and 25 cm wide (5 mm thick) with holes drilled 1 cm apart along one long edge. […]

T1 sequence (P49840 whole entry): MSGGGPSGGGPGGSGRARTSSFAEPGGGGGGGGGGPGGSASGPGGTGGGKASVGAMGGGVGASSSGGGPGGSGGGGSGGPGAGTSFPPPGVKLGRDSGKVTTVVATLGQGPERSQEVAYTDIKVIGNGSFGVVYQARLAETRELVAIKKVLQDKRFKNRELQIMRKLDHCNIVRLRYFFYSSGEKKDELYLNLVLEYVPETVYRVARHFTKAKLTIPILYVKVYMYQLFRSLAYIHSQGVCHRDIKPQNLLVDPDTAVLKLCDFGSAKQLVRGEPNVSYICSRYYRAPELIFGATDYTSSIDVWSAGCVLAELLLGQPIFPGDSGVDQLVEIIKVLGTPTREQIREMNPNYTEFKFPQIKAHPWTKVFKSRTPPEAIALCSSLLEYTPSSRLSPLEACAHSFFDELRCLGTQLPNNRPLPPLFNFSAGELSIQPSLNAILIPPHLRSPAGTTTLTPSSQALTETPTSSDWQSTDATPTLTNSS

Cc1nc(-c2ccccc2Cl)nc(Nc2n[nH]c3ncc(F)cc23)c1C [Compound I-1, N-(2-(2-chlorophenyl)-5,6-dimethylpyrimidin-4-yl)-5-fluoro-1H-pyrazolo[3,4-b]pyridin-3-amine]
IC50 (GSK3α TYR 279): < 0.5 nM | deficit in gridwalk (rats subjected to MCAO): significantly ameliorated this deficit
